Results published in patent publication US12410124B2 (priority 2019, dated 2025).

System: substantia nigra CD11b
Experiment: Number of substantia nigra microglial cells with CD11b positive expression in MPTP Parkinson's disease model mouse (immunohistochemistry)
Assay type: in vivo
Conditions: not given
Protocol: Neurotoxins can be used to establish PD animal models. Currently, 1-methyl-4-phenyl-1,2,3,6-tetrahydropyridine (MPTP) is the sole synthetic toxin which is recognized to induce PD symptoms in human and non-human primates and in mice. Using MPTP subacute modeling method, C57BL/6J male mice were intraperitoneally injected with MPTP 30 mg/kg, once a day for 5 consecutive days. The experiment animals were divided into blank control group, MPTP model group, and compound treatment group. For the […] compound treatment group, the compound was administrated by gavage for 21 consecutive days after the completion of modeling; for the MPTP model group, the normal saline was administrated by gavage for 21 consecutive days after the completion of modeling; and for the blank control group, the normal saline was first intraperitoneally injected for 5 days, and then administrated by gavage for 21 days.
Neuron-glial cell network homeostasis disorder is an important factor for the selective and progressive death of substantia nigra dopaminergic neurons in PD. In the neurotoxic effect of MPTP, the excessive activations of microglial cells and astrocytes produce a variety of inflammatory cytokines and reactive oxygen species (ROS). These inflammatory factors and ROS amplify their respective toxicities and mediate malignant feedback loop, causing a cascade inflammation response and aggravating the pathological process of PD. CD11b and GFAP are the marker proteins for activations of microglial cells and astrocytes, respectively. Therefore, the effect of the target compounds on the activations of the microglial cells and astrocytes in the substantia nigra, hippocampus, and midbrain areas of MPTP-induced PD mice can be investigated, to explore the mechanism of the anti-PD effect of the target compounds by inhibiting the neuroinflammation.
Half of experiment mice in each group were taken to separate the midbrain after perfusion and fixation. The tissue was trimmed, and the substantia nigra area was taken to prepare paraffin sections. The CD11b immunohistochemical staining was performed for the statistics of the change in the number of microglial cells with CD11b positive expression. The experiment included blank control group, MPTP model group, positive control group (caffeic acid phenethyl ester, CAPE), prototype control group (styryl sulfone compounds 3B, 3C, 3D, and 3G, whose structures are shown as above), and target compound group.

In the case of CCN(CC)C(=O)Oc1ccc(/C=C/S(=O)(=O)CCCc2ccccc2)cc1OC(=O)N(CC)CC [Compound C1-1, (E)-4-[2-(3-phenylpropylsulfonyl)ethenyl]-1,2-phenylenebis(diethylcarbamate)], the “number of substantia nigra microglial cells with CD11b positive expression compared with the styryl sulfone prototype compounds” value was “significantly lower”.
In the case of CCN(CC)C(=O)Oc1ccc(/C=C/S(=O)(=O)Cc2ccc(C(C)(C)C)cc2)cc1OC(=O)N(CC)CC [Compound G1-1, (E)-4-{2-[(4-t-butylphenyl)mesyl]ethenyl}-1,2-phenylenebis(diethylcarbamate)], the “number of substantia nigra microglial cells with CD11b positive expression compared with the styryl sulfone prototype compounds” value was “significantly lower”.
With CCN(CC)C(=O)Oc1ccc(/C=C/S(=O)(=O)Cc2ccc(C(F)(F)F)cc2)cc1OC(=O)N(CC)CC [Compound B1-1, (E)-4-{2-[(4-trifluoromethylphenyl)mesyl]ethenyl}-1,2-phenylenebis(diethylcarbamate)] the “number of substantia nigra microglial cells with CD11b positive expression compared with the styryl sulfone prototype compounds” value was “significantly lower”.

Same assay, conditions: substantia nigra, MPTP Parkinson's disease model mouse, immunohistochemistry

Going from CCN(CC)C(=O)Oc1ccc(/C=C/S(=O)(=O)CCCc2ccccc2)cc1OC(=O)N(CC)CC [Compound C1-1, (E)-4-[2-(3-phenylpropylsulfonyl)ethenyl]-1,2-phenylenebis(diethylcarbamate)] to CCN(CC)C(=O)Oc1ccc(/C=C/S(=O)(=O)Cc2ccc(C(C)(C)C)cc2)cc1OC(=O)N(CC)CC [Compound G1-1, (E)-4-{2-[(4-t-butylphenyl)mesyl]ethenyl}-1,2-phenylenebis(diethylcarbamate)], the “Positive cell number (microglial cells with CD11b positive expression)” value (“Positive cell number” for short) rises from 27 ± 4 to 36 ± 3.

Compared with COc1ccc(CC(=O)Oc2ccc(/C(C)=C/S(=O)(=O)/C=C/c3ccc(OC(=O)N(C)C)c(O[Si](C)(C)CCl)c3)cc2)cc1 [Compound P1-7, 4-{(E)-1-[(E)-3-(chloromethyldimethylsiloxy)-4-(N,N-dimethylcarbamoyloxy)styrylsulfonyl]prop-1-en-2-yl}phenyl-2-(4-methoxyphenyl) acetate], O=C(/C=C/c1ccc(O)c(O)c1)OCCc1ccccc1 [Positive control group, caffeic acid phenethyl ester, reference compound] is higher in “Positive cell number” value: 15 ± 2 for the first, 49 ± 7 for the second.

CNC(=O)Oc1ccc(/C=C/S(=O)(=O)CC(Cl)c2ccc(Cl)c([N+](=O)[O-])c2)cc1O (stereo not drawn) [Compound E2-2, (E)-4-{2-[2-chloro-2-(4-chloro-3-nitrophenyl)ethylsulfonyl]ethenyl}-2-hydroxyphenyl-N-methylcarbamate] and CC(C)N(c1ccc(CCS(=O)(=O)/C=C/c2ccc(OC(=O)N(C)c3ccc(I)cc3)c(OCCOCc3ccccc3)c2)cc1)C(C)C [Compound A1-3, (E)-2-(2-benzyloxyethoxy)-4-{2-[4-(N,N-diisopropylamino)phenylethylsulfonyl]ethenyl}phenyl-N-(4-iodophenyl)-N-methylcarbamate] are within error of each other in “Positive cell number” value: 40 ± 5 for the first, 38 ± 4 for the second.

CC[Si](CC)(Oc1ccc(C(Cl)S(=O)(=O)/C=C/c2ccc(OC(=O)N3CC(C)OC(C)C3)c(OC(=O)c3cccc(Cl)c3OC)c2)cc1)c1ccccc1 (stereo not drawn) [Compound R1-5, (E)-4-{2-[4-(diethylphenylsiloxy)phenylchloromesyl]ethenyl}-2-(3-chloro-2-methoxybenzoyloxy)phenyl-2,6-dimethylmorpholine-4-carboxylate] and “(E)-2-[(methylamino)methoxy]-4-{2-[1-(4′-nitro-[1,1′-biphenyl]-4-yl)ethylsulfonyl]ethenyl}phenylcarbamate [Compound M1-3]” are within error of each other in “Positive cell number” value: 39 ± 6 for the first, 33 ± 5 for the second.

O=S(=O)(/C=C/c1ccc(O)c(O)c1)Cc1ccc(C(F)(F)F)cc1 [Compound 3B, (E)-4-{2-[(4-trifluoromethylphenyl)mesyl]ethenyl}benzene-1,2-diol, reference compound] and O=S(=O)(/C=C/c1ccc(O)c(O)c1)Cc1ccc(Cl)cc1 [Compound 3D, (E)-4-{2-[(4-chlorophenyl)mesyl]ethenyl}benzene-1,2-diol, reference compound] are within error of each other in “Positive cell number” value: 44 ± 5 for the first, 39 ± 4 for the second.

First: O=S(=O)(/C=C/c1ccc(O)c(O)c1)CCCc1ccccc1 [Compound 3C, (E)-4-{2-[(3-phenylpropyl)sulfonyl]ethenyl}benzene-1,2-diol, reference compound]
Second: C=CCOc1ccc(C/C=C/S(=O)(=O)/C=C/c2ccc(OC(C)=O)c(OC(=O)N(CC=C)CC=C)c2)cc1 [Compound K1-4, 4-{(E)-2-[(E)-3-(4-allyloxyphenyl)prop-1-en-1-yl]sulfonylethenyl}-2-(N,N-diallylcarbamoyloxy)phenyl acetate]
The “Positive cell number” value of the first is higher: 70 ± 6 for the first, 30 ± 4 for the second.

Compared with CCN(C)C(=O)Oc1ccc(/C=C/S(=O)(=O)CC(c2ccc(-c3ccc(OC)c(OC)c3)cc2)[N+](=O)[O-])cc1OC(=O)N(C)CC (stereo not drawn) [Compound M1-1, (E)-4-{2-[2-(3′,4′-dimethoxy-[1,1′-biphenyl]-4-yl)-2-nitroethylsulfonyl]ethenyl}-1,2-phenylenebis(N-ethyl-N-methylcarbamate)], COc1cc(/C=C/S(=O)(=O)Cc2cc(OC)c(OC)c(OC)c2)ccc1OC(=O)N(c1ccccc1)c1ccccc1 [Compound K3-3, (E)-2-methoxy-4-{2-[(3,4,5-trimethoxyphenyl)mesyl]ethenyl}-phenyl-N,N-diphenylcarbamate] is higher in “Positive cell number” value: 20 ± 3 for the first, 39 ± 3 for the second.

Going from Cc1ccc(S(=O)(=O)Oc2ccc(CS(=O)(=O)/C=C/c3ccc(OS(=O)(=O)c4ccc(C)cc4)c(OC(=O)N(C)S(=O)(=O)c4ccc(C)cc4)c3)cc2)cc1 [Compound S6-6, (E)-2-(N-methyl-N-p-tosylcarbamoyloxy)-4-{2-[(4-p-tosyloxyphenyl)mesyl]ethenyl}phenyl p-toluenesulfonate] to CCOC(CS(=O)(=O)/C=C/c1ccc(OC(C)=O)c(OC(=O)Nc2ccc(NC)cc2)c1)C(OCC)c1ccc(OCc2ccccc2)c(O)c1 (stereo not drawn) [Compound H2-4, (E)-4-{2-[3-(4-benzyloxy-3-hydroxyphenyl)-2,3-diethoxypropyl]sulfonylethenyl}-2-[N-(4-methylaminophenyl)carbamoyloxy]phenyl acetate], the “Positive cell number” value rises from 19 ± 2 to 29 ± 4.

COCCN(C)C(=O)Oc1cc(/C=C/S(=O)(=O)CCc2cccc(-c3ccc(C)o3)c2)ccc1OC(C)=O [Compound J1-4, (E)-2-[N-(2-methoxyethyl)-N-methylcarbamoyloxy]-4-{2-[3-(5-methylfur-2-yl)phenylethylsulfonyl]ethenyl}phenyl acetate] and COc1ccc(CC(=O)Oc2ccc(C(N)CS(=O)(=O)/C=C/c3ccc(OC(C)(C)C)c(OC(=O)N(C)c4ccccc4)c3)cc2)cc1 (stereo not drawn) [Compound P1-3, (E)-4-{1-amino-2-[4-t-butoxy-3-(N-methyl-N-phenylcarbamoyloxy)styrylsulfonyl]ethyl}phenyl-2-(4-methoxyphenyl)acetate] are within error of each other in “Positive cell number” value: 24 ± 5 for the first, 31 ± 4 for the second.

First: CCN(CC)C(=O)Oc1ccc(/C=C/S(=O)(=O)Cc2ccc(C(F)(F)F)cc2)cc1OC(=O)N(CC)CC [Compound B1-1, (E)-4-{2-[(4-trifluoromethylphenyl)mesyl]ethenyl}-1,2-phenylenebis(diethylcarbamate)]
Second: CC(=O)Oc1ccc(/C=C/S(=O)(=O)Cc2c(F)c(F)c(F)c(F)c2F)cc1OC(=O)NC(=O)c1ccc([N+](=O)[O-])c(C)c1 [Compound D5-4, (E)-2-[N-(3-methyl-4-nitrobenzoyl)carbamoyloxy]-4-{2-[(perfluorophenyl)mesyl]ethenyl}phenyl acetate]
The “Positive cell number” value of the first is lower: 32 ± 4 for the first, 41 ± 3 for the second.

For CC(C)(C)c1ccc(CS(=O)(=O)/C=C/c2ccc(O)c(O)c2)cc1 [Compound 3G, (E)-4-{2-[(4-t-butylphenyl)mesyl]ethenyl}benzene-1,2-diol, reference compound], the “Positive cell number” value was 52 ± 5.
